Results: EP0900076B1, “TRANSDERMAL DEVICE” (priority 1996, dated 1997)

Assays:
clinical [1] = details: human, in vivo, 100 mg
clinical [2] = details: female, human, in vivo, 100 mg
[3] = 10 mg morphine, end of the 24 hour delivery, mean; cited from earlier work
[4] = Example 2: transdermal morphine after elective coronary surgery, amount absorbed from the drug cell; details: after 48 hours, of the initial 100 mg
[5] = postoperative monitoring during the test period

SMILES | concentration at 0 h (clinical [1]) [nM] | concentration at 1 h (clinical [1]) [nM] | concentration at 2 h (clinical [1]) [nM] | concentration at 3 h (clinical [1]) [nM] | concentration at 3.5 h (clinical [1]) [nM] | concentration at 4 h (clinical [1]) [nM] | concentration at 1 h (clinical [2]) [nM] | concentration at 32 h (clinical [2]) [nM] | concentration at 48 h (clinical [2]) [nM] | amount of drug in the reservoir was reduced [3] [per cent] | morphine dose in the drug cell found to be absorbed [4] [mg] | oxygen saturation [5]
CN1CC[C@]23c4c5ccc(O)c4O[C@H]2[C@@H](O)C=C[C@H]3[C@H]1C5 [Morphine acetate] | 0 | 53 | 112 | 115 | 154 | 162 |  |  |  |  |  | 
CN1CC[C@]23c4c5ccc(O)c4O[C@H]2[C@@H](O)C=C[C@H]3[C@H]1C5 [Morphine] |  |  |  |  |  |  | 8 ± 3.5 | 9.8 ± 3.8 | 8.5 ± 1.7 | 75 | 32 ± 6 | remained normal
